According to publication PMC7406636, “In vivo and in silico characterization of apocynin in reducing organ oxidative stress: A pharmacokinetic and pharmacodynamic study” (Pharmacology Research & Perspectives, 2020):

Assay: Time-dependent distribution of apocynin in plasma, urine and tissues after iv bolus injection (HPLC-MS/MS)
Format: in vivo, mouse
Conditions: plasma, brain and liver samples after iv bolus injection of apocynin, HPLC-MS/MS
Procedure: All studies were performed in accordance with the protocols approved by the Home Office under the Animals (Scientific Procedures) Act 1986, UK. For the PKPD study, male CD1 mice (Charles River Ltd) at 12 weeks of age with a body weight range between 25 and 30 g were used for the study. Mice were fasted 12 hours before bolus iv injection of apocynin at 5 mg/kg body weight (dosing volume 5 mL/kg) via a lateral tail vein. Control mice were injected with vehicle (solvent of apocynin) at each time points. Four mice/per time points were sacrificed at 0, 1, 2.5, 5, 15, 30, 60 minutes and then at 3, 6, 12, and 24 hours after iv injection of apocynin. Blood samples were collected and centrifuged at 2000 g, 4°C for 10 minutes for plasma collection. Urine samples were collected from bladders. Tissues were harvested for further experiments.
The detection of apocynin in tissue sample was performed as described previously with some modifications. ^17 In brief, apocynin was detected using an Accela HPLC coupled to a linear ion‐trap tandem mass spectrometry (LTQ‐Orbitrap XL; Thermo‐Fisher Scientific) (HPLC‐MS/MS) in the negative ion mode. Phenacetin (500 ng/mL) was used as an internal standard in every vial. A reversed‐phase 50 × 2.1 mm ID, […], 175 Å pore C18 Hypersil Gold column (Thermo Scientific) was used with injection volume set at 5 µL for the separation of apocynin and phenacetin. Calibration curve used for PK analysis was constructed by spiking apocynin in mouse plasma using eight calibrators ranging from 1 to 10000 ng/mL with great reproducibility and R ^2 ≥ 0.996 for subsequent 5 separate experiments on different days. […] Limit of detection for apocynin was set up at signal to noise ratio ≥ 3, ^18 which is 1 ng/mL in our system. The limitation of quantification was set up at signal to noise ratio ≥ 10, which is 10 ng/mL in our system. Orbitrap component was used for the full scan spectra of apocynin and diapocynin.

- diapocynin detection as metabolite in samples: not detected
SMILES: COc1cc(C(C)=O)cc(-c2cc(C(C)=O)cc(OC)c2O)c1O [Diapocynin]
